Key:
human C5aR = human C5aR (Homo sapiens (Human), UniProt P21730); assay: FLIPR assay: inhibition of C5a-mediated calcium mobilization; assay type: cell-based; settings: stable cell line over expressing human C5aR & Gα15, human C5a at EC50 (0.1-0.25 nM)
How it was run: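 Compounds were added for 30 minutes at room temperature (1% DMSO) ahead of C5a stimulation. Before this, cells were dye-loaded for 1 h at 37° C: calcium 5 with 2.5 mM probenecid in HBSS, 20 mM HEPES, 0.1% BSA. Cells co-express human C5aR and Gα15; read-out is FLIPR Tetra calcium flux.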

CD11b = assay: Human whole blood CD11b up-regulation assay; assay type: cell-based; settings: Homo sapiens, 2 nM human C5a, CD15+ granulocytes, read-out: hCD11b IC50
Experimental: Whole blood was collected in sodium heparin tubes and the assay started within 2 hours of the blood draw. The blood was incubated with compounds in 1% DMSO (dimethyl sulfoxide) at room temperature for 10 minutes with gentle rocking. 2 nM of human C5a was then added for 15 minutes at room temperature with gentle rocking. Following the C5a incubation period cells were washed once with cold FACS (fluorescence-activated cell sorting) buffer (phosphate buffered saline+0.5% bovine serum albumin) FITC (fluorescein isothiocyanate) mouse anti-human CD15 and PE-Cy5 (phycoerythrin-cyanine 5) mouse anti-human CD11b antibodies (Becton Dickinson) were gently mixed with the cells and allowed to incubate for 30 minutes on ice protected from the light. Cells were then washed three times with cold FACS buffer. Red blood cells (RBC) were lysed by incubating with BD FACS lysis buffer (Becton Dickinson) for 10 minutes at room temperature. Cells were pelleted and the lysing procedure was repeated until all RBCs were lysed. The remaining leukocytes were resuspended in BD lysis buffer. Samples were acquired on the LSR^11 flow cytometer and 10,000 events of the CD15+ granulocyte population were collected. The CD11b median fluorescence intensity of the CD 15+ cell population was evaluated using FACSDiva software (Becton Dickinson).

human C5aR, sequence (P21730 whole entry): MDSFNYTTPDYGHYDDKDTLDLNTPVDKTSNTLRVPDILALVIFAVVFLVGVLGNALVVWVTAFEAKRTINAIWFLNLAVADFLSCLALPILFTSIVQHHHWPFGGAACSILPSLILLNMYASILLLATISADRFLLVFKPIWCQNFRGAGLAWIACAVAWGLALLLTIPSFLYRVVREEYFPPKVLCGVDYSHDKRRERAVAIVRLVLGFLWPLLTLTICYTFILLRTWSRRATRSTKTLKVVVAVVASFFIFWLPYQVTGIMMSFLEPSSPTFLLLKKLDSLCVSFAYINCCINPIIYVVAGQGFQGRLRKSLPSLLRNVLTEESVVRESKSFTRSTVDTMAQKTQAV

Row | Compound | IC50 (human C5aR) [nM] | IC50 (CD11b) [nM]
1 | CO[C@@H]1CCN(c2nc(-c3c(C)ccc4[nH]nc(C)c34)nc3c2CN(c2cc(C4(C)COC4)ccc2C)CC3)[C@H](C)C1 [Example 21-R, 2-(3,5-dimethyl-1H-indazol-4-yl)-4-((2R,4R)-4-methoxy-2-methylpiperidin-1-yl)-6-(2-methyl-5-(3-methyloxetan-3-yl)phenyl)-5,6,7,8-tetrahydropyrido[4,3-d]pyrimidine] | 1 | 15
2 | CCO[C@@H]1CCN(c2nc(-c3c(C)ccc4[nH]nc(C)c34)nc3c2CN(c2cc(C(C)C)ccc2C)CC3)[C@H](C)C1 [Example 21-AL, 2-(3,5-dimethyl-1H-indazol-4-yl)-4-((2R,4R)-4-ethoxy-2-methylpiperidin-1-yl)-6-(5-isopropyl-2-methylphenyl)-5,6,7,8-tetrahydropyrido[4,3-d]pyrimidine] | 1 | 19
3 | CO[C@H]1CCN(c2nc(-c3c(C)cccc3C)nc3c2CN(c2cc(C(F)(F)F)ccc2C)CC3)CC1(C)C [Example 19-AB, (S)-2-(2,6-dimethylphenyl)-4-(4-methoxy-3,3-dimethylpiperidin-1-yl)-6-(2-methyl-5-(trifluoromethyl)phenyl)-5,6,7,8-tetrahydropyrido[4,3-d]pyrimidine] | 17 | 26
4 | CO[C@@H]1CCN(c2nc(-c3c(C)ccc4[nH]nc(C)c34)nc3c2CN(c2cc(C(F)(F)F)nn2C)CC3)[C@H](C)C1 [Example 23-J, 2-(3,5-dimethyl-1H-indazol-4-yl)-4-((2R,4R)-4-methoxy-2-methylpiperidin-1-yl)-6-(1-methyl-3-(trifluoromethyl)-1H-pyrazol-5-yl)-5,6,7,8-tetrahydropyrido[4,3-d]pyrimidine] | 8 | 38
5 | CO[C@@H]1CCN(c2nc(-c3c(C)ccc4[nH]nc(C)c34)nc3c2CN(c2cc(C(F)(F)F)ccc2C)CC3)CC1(C)C [Example 21-AJ, (R)-2-(3,5-dimethyl-1H-indazol-4-yl)-4-(4-methoxy-3,3-dimethylpiperidin-1-yl)-6-(2-methyl-5-(trifluoromethyl)phenyl)-5,6,7,8-tetrahydropyrido[4,3-d]pyrimidine] | 6 | 15
6 | CO[C@@H]1CCN(c2nc(-c3c(C)ccc4[nH]nc(C)c34)nc3c2CN(c2cc(C(F)(F)F)ccc2C)CC3)[C@H](C)C1 [Example 21-AH, 2-(3,5-dimethyl-1H-indazol-4-yl)-4-((2R,4R)-4-methoxy-2-methylpiperidin-1-yl)-6-(2-methyl-5-(trifluoromethyl)phenyl)-5,6,7,8-tetrahydropyrido[4,3-d]pyrimidine] | 1 | 6
7 | CO[C@@H]1CCN(c2nc(-c3c(C)ccc4[nH]nc(C)c34)nc3c2CN(c2cc(C(C)C)nn2C)CC3)[C@H](C)C1 [Example 23-G, 2-(3,5-dimethyl-1H-indazol-4-yl)-6-(3-isopropyl-1-methyl-1H-pyrazol-5-yl)-4-((2R,4R)-4-methoxy-2-methylpiperidin-1-yl)-5,6,7,8-tetrahydropyrido[4,3-d]pyrimidine] | 2 | 25
8 | CO[C@@H]1CCN(c2nc(-c3c(C)ccc4[nH]nc(C)c34)nc3c2CN(c2cc(C4CC4)nn2C)CC3)[C@H](C)C1 [Example 23-H, 6-(3-cyclopropyl-1-methyl-1H-pyrazol-5-yl)-2-(3,5-dimethyl-1H-indazol-4-yl)-4-((2R,4R)-4-methoxy-2-methylpiperidin-1-yl)-5,6,7,8-tetrahydropyrido[4,3-d]pyrimidine] | 1 | 24
9 | CO[C@@H]1CCN(c2nc(-c3c(C)cccc3C)nc3c2CN(c2cc(C(F)(F)F)ccc2C)CC3)CC1(C)C [Example 21-AB, (R)-2-(2,6-dimethylphenyl)-4-(4-methoxy-3,3-dimethylpiperidin-1-yl)-6-(2-methyl-5-(trifluoromethyl)phenyl)-5,6,7,8-tetrahydropyrido[4,3-d]pyrimidine] | 4 | 11

Second part, the compound after the results:

Row | IC50 (human C5aR) [nM] | IC50 (CD11b) [nM] | Compound
10 | 32 | 60 | Cc1ccc(C(C)C)cc1N1CCc2nc(-c3c(C)ccc4[nH]nc(C)c34)nc(OCCN3CCOCC3)c2C1 [Example 63-I, 4-(2-((2-(3,5-dimethyl-1H-indazol-4-yl)-6-(5-isopropyl-2-methylphenyl)-5,6,7,8-tetrahydropyrido[4,3-d]pyrimidin-4-yl)oxy)ethyl)morpholine]
11 | 75 | 385 | Cc1ccc(F)cc1N1CCc2nc(-c3cccc4[nH]cc(C)c34)nc(N3CCN(CC(N)=O)[C@H](C)C3)c2C1 [Example 24-E, (R)-2-(4-(6-(5-fluoro-2-methylphenyl)-2-(3-methyl-1H-indol-4-yl)-5,6,7,8-tetrahydropyrido[4,3-d]pyrimidin-4-yl)-2-methylpiperazin-1-yl)acetamide]
12 | 3 | 70 | Cc1ccc(C(C)C)cc1N1CCc2nc(-c3c(C(C)C)ccc4[nH]ncc34)cc(C)c2C1 [Example 41-G, 2-(5-isopropyl-1H-indazol-4-yl)-6-(5-isopropyl-2-methylphenyl)-4-methyl-5,6,7,8-tetrahydro-1,6-naphthyridine]
13 | 42 | 224 | Cc1cc(-c2c(C(C)C)ccc3[nH]ncc23)nc2c1CN(c1c(Cl)c(C3CC3)nn1C)CC2 [Example 46-B, 6-(4-Chloro-3-cyclopropyl-1-methyl-1H-pyrazol-5-yl)-2-(5-isopropyl-1H-indazol-4-yl)-4-methyl-5,6,7,8-tetrahydro-1,6-naphthyridine]
14 | 8 | 45 | Cc1ccc2[nH]nc(C)c2c1-c1nc2c(c(N3CC[C@H]4OC[C@H]4C3)n1)CN(c1c(Cl)c(C3CC3)nn1C)CC2 (racemic) [Example 69-M, (cis)-3-(6-(4-chloro-3-cyclopropyl-1-methyl-1H-pyrazol-5-yl)-2-(3,5-dimethyl-1H-indazol-4-yl)-5,6,7,8-tetrahydropyrido[4,3-d]pyrimidin-4-yl)-7-oxa-3-azabicyclo[4.2.0]octane]
15 | 1 | 19 | Cc1ccc(C(C)C)cc1N1CCc2nc(-c3c(C)ccc4[nH]nc(C)c34)nc(N3CCC3C)c2C1 (single isomer, unassigned) [Example 65-I, 2-(3,5-dimethyl-1H-indazol-4-yl)-6-(5-isopropyl-2-methylphenyl)-4-(2-methylazetidin-1-yl)-5,6,7,8-tetrahydropyrido[4,3-d]pyrimidine]
16 | 77 | 72 | COc1nc(-c2c(C)ccc3[nH]nc(C)c23)nc2c1CN(c1cc(C3(C)COC3)ccc1C)CC2 [Example 31-H, 2-(3,5-dimethyl-1H-indazol-4-yl)-4-methoxy-6-(2-methyl-5-(3-methyloxetan-3-yl)phenyl)-5,6,7,8-tetrahydropyrido[4,3-d]pyrimidine]
17 | 56 | 1420 | [2H]C1([2H])c2c(C)cc(-c3cccc4[nH]cc(C)c34)nc2CCN1c1c(C)nn(CC)c1C [Example 47-B, 6-(1-Ethyl-3,5-dimethyl-1H-pyrazol-4-yl)-4-methyl-2-(3-methyl-1H-indol-4-yl)-5,6,7,8-tetrahydro(5,5-^2H2)-1,6-naphthyridine]
18 | 1 | 11 | CO[C@@H]1CCN(c2nc(-c3c(C)ccc4[nH]nc(C)c34)nc3c2CN(c2c(F)c(C(F)F)nn2C)CC3)CC1(C)C [Example 56-F, (R)-6-(3-(difluoromethyl)-4-fluoro-1-methyl-1H-pyrazol-5-yl)-2-(3,5-dimethyl-1H-indazol-4-yl)-4-(4-methoxy-3,3-dimethylpiperidin-1-yl)-5,6,7,8-tetrahydropyrido[4,3-d]pyrimidine]

From patent US8846656B2, “Tetrahydropyrido-pyridine and tetrahydropyrido-pyrimidine compounds and use thereof as C5a receptor modulators” (Novartis AG, priority 2011, dated 2014)
